According to the supplement of paper PMC10307832:

Columns and labels:
Assay in all cases: relative viability (nuclei count vs DMSO), 5 days (fraction); higher = more cells survive
[1] = compound: Cn1nnc2c(C(N)=O)ncn2c1=O [Temozolomide] + CC(=O)Nc1cccc(-n2c(=O)n(C3CC3)c(=O)c3c(Nc4ccc(I)cc4F)n(C)c(=O)c(C)c32)c1 [Trametinib] (partner 0.02 µM)
Outline: (§1)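 Relative viability equals treated-well nuclei counts divided by vehicle-well nuclei counts. Counts came from 4× images of lung cancer cell lines grown in 1536-well plates for 5 days after pin-tool dosing on the day after seeding. Dosing used one drug alone or a fixed anchor-drug dose plus five library-drug doses (not always all listed) in √10 steps, and values are medians of duplicate plates.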

Temozolomide + Foretinib = compound: Cn1nnc2c(C(N)=O)ncn2c1=O [Temozolomide] + COc1cc2c(Oc3ccc(NC(=O)C4(C(=O)Nc5ccc(F)cc5)CC4)cc3F)ccnc2cc1OCCCN1CCOCC1 [Foretinib] (partner 0.25 µM)
Outline: as §1

AZD5582 + Bortezomib = compound: C[C@@H](C(=O)N[C@@H](C1CCCCC1)C(=O)N2CCC[C@H]2C(=O)N[C@@H]3[C@@H](CC4=CC=CC=C34)OCC#CC#CCO[C@@H]5CC6=CC=CC=C6[C@@H]5NC(=O)[C@@H]7CCCN7C(=O)[C@H](C8CCCCC8)NC(=O)[C@H](C)NC)NC [AZD5582] + CC(C)C[C@H](NC(=O)[C@H](Cc1ccccc1)NC(=O)c1cnccn1)B(O)O [Bortezomib] (partner 0.002 µM)
Outline: as §1

AZD5582 + Dasatinib = compound: C[C@@H](C(=O)N[C@@H](C1CCCCC1)C(=O)N2CCC[C@H]2C(=O)N[C@@H]3[C@@H](CC4=CC=CC=C34)OCC#CC#CCO[C@@H]5CC6=CC=CC=C6[C@@H]5NC(=O)[C@@H]7CCCN7C(=O)[C@H](C8CCCCC8)NC(=O)[C@H](C)NC)NC [AZD5582] + Cc1nc(Nc2ncc(C(=O)Nc3c(C)cccc3Cl)s2)cc(N2CCN(CCO)CC2)n1 [Dasatinib] (partner 0.075 µM)
Outline: as §1

Work on NCI-H1666 yielded a relative viability ([1]; first compound 0.2 µM) of 0.828, a relative viability ([1]; first compound 0.6325 µM) of 0.871 and a relative viability ([1]; first compound 2 µM) of 0.739. For the same cell line, the relative viability ([1]; first compound 6.325 µM) was 0.809, the relative viability ([1]; first compound 20 µM) was 0.732 and the relative viability (Temozolomide + Foretinib; first compound 0.2 µM) was 0.917. The relative viability (Temozolomide + Foretinib; first compound 0.6325 µM) was 0.868, the relative viability (Temozolomide + Foretinib; first compound 2 µM) was 0.837 and the relative viability (Temozolomide + Foretinib; first compound 6.325 µM) was 0.611. It also gave a relative viability (Temozolomide + Foretinib; first compound 20 µM) of 0.679, a relative viability (AZD5582 + Bortezomib; first compound 0.001581 µM) of 0.717 and a relative viability (AZD5582 + Bortezomib; first compound 0.005 µM) of 0.805. For the same cell line, the relative viability (AZD5582 + Bortezomib; first compound 0.01581 µM) was 0.714, the relative viability (AZD5582 + Bortezomib; first compound 0.05 µM) was 0.73 and the relative viability (AZD5582 + Dasatinib; first compound 0.001581 µM) was 0.656. It also gave a relative viability (AZD5582 + Dasatinib; first compound 0.005 µM) of 0.814, a relative viability (AZD5582 + Dasatinib; first compound 0.01581 µM) of 0.757 and a relative viability (AZD5582 + Dasatinib; first compound 0.05 µM) of 0.846.

Work on UMC-11 yielded a relative viability ([1]; first compound 0.2 µM) of 0.728, a relative viability ([1]; first compound 0.6325 µM) of 0.749 and a relative viability ([1]; first compound 2 µM) of 0.786. For the same cell line, the relative viability ([1]; first compound 6.325 µM) was 0.643, the relative viability ([1]; first compound 20 µM) was 0.519 and the relative viability (Temozolomide + Foretinib; first compound 0.2 µM) was 1.11. For the same cell line, the relative viability (Temozolomide + Foretinib; first compound 0.6325 µM) was 1.06, the relative viability (Temozolomide + Foretinib; first compound 2 µM) was 1.16 and the relative viability (Temozolomide + Foretinib; first compound 6.325 µM) was 0.872. It also gave a relative viability (Temozolomide + Foretinib; first compound 20 µM) of 0.57, a relative viability (AZD5582 + Bortezomib; first compound 0.001581 µM) of 0.677 and a relative viability (AZD5582 + Bortezomib; first compound 0.005 µM) of 0.873. It also gave a relative viability (AZD5582 + Bortezomib; first compound 0.01581 µM) of 0.733, a relative viability (AZD5582 + Bortezomib; first compound 0.05 µM) of 0.709 and a relative viability (AZD5582 + Dasatinib; first compound 0.001581 µM) of 0.424. The relative viability (AZD5582 + Dasatinib; first compound 0.005 µM) was 0.455, the relative viability (AZD5582 + Dasatinib; first compound 0.01581 µM) was 0.447 and the relative viability (AZD5582 + Dasatinib; first compound 0.05 µM) was 0.414.

HCC-78 gave a relative viability ([1]; first compound 0.2 µM) of 0.602, a relative viability ([1]; first compound 0.6325 µM) of 0.793 and a relative viability ([1]; first compound 2 µM) of 0.646. It also gave a relative viability ([1]; first compound 20 µM) of 0.736, a relative viability (Temozolomide + Foretinib; first compound 0.2 µM) of 0.487 and a relative viability (Temozolomide + Foretinib; first compound 0.6325 µM) of 0.547. It also gave a relative viability (Temozolomide + Foretinib; first compound 2 µM) of 0.616, a relative viability (Temozolomide + Foretinib; first compound 6.325 µM) of 0.551 and a relative viability (Temozolomide + Foretinib; first compound 20 µM) of 0.552. It also gave a relative viability (AZD5582 + Bortezomib; first compound 0.001581 µM) of 0.367, a relative viability (AZD5582 + Bortezomib; first compound 0.005 µM) of 0.604 and a relative viability (AZD5582 + Bortezomib; first compound 0.01581 µM) of 0.421. It also gave a relative viability (AZD5582 + Bortezomib; first compound 0.05 µM) of 0.479, a relative viability (AZD5582 + Dasatinib; first compound 0.001581 µM) of 0.489 and a relative viability (AZD5582 + Dasatinib; first compound 0.005 µM) of 0.392. For the same cell line, the relative viability (AZD5582 + Dasatinib; first compound 0.01581 µM) was 0.375 and the relative viability (AZD5582 + Dasatinib; first compound 0.05 µM) was 0.374.

In the case of NCI-H1651, the relative viability ([1]; first compound 0.2 µM) is reported as 0.677, the relative viability ([1]; first compound 0.6325 µM) is reported as 0.834 and the relative viability ([1]; first compound 2 µM) is reported as 0.818. It also gave a relative viability ([1]; first compound 6.325 µM) of 0.77, a relative viability ([1]; first compound 20 µM) of 0.84 and a relative viability (Temozolomide + Foretinib; first compound 0.2 µM) of 0.914. The relative viability (Temozolomide + Foretinib; first compound 0.6325 µM) was 0.725, the relative viability (Temozolomide + Foretinib; first compound 2 µM) was 0.782 and the relative viability (Temozolomide + Foretinib; first compound 6.325 µM) was 0.759. It also gave a relative viability (Temozolomide + Foretinib; first compound 20 µM) of 0.839, a relative viability (AZD5582 + Bortezomib; first compound 0.001581 µM) of 0.831 and a relative viability (AZD5582 + Bortezomib; first compound 0.005 µM) of 0.907. For the same cell line, the relative viability (AZD5582 + Bortezomib; first compound 0.01581 µM) was 0.87, the relative viability (AZD5582 + Bortezomib; first compound 0.05 µM) was 0.987 and the relative viability (AZD5582 + Dasatinib; first compound 0.001581 µM) was 0.428. It also gave a relative viability (AZD5582 + Dasatinib; first compound 0.005 µM) of 0.478 and a relative viability (AZD5582 + Dasatinib; first compound 0.05 µM) of 0.552.

NCI-H2347 gave a relative viability ([1]; first compound 0.2 µM) of 0.26, a relative viability ([1]; first compound 0.6325 µM) of 0.291 and a relative viability ([1]; first compound 2 µM) of 0.28. For the same cell line, the relative viability ([1]; first compound 6.325 µM) was 0.289, the relative viability ([1]; first compound 20 µM) was 0.244 and the relative viability (Temozolomide + Foretinib; first compound 0.2 µM) was 1.11. For the same cell line, the relative viability (Temozolomide + Foretinib; first compound 0.6325 µM) was 1.03, the relative viability (Temozolomide + Foretinib; first compound 2 µM) was 1.42 and the relative viability (Temozolomide + Foretinib; first compound 6.325 µM) was 0.773. For the same cell line, the relative viability (Temozolomide + Foretinib; first compound 20 µM) was 0.982, the relative viability (AZD5582 + Bortezomib; first compound 0.001581 µM) was 0.73 and the relative viability (AZD5582 + Bortezomib; first compound 0.005 µM) was 0.949. For the same cell line, the relative viability (AZD5582 + Bortezomib; first compound 0.01581 µM) was 0.693, the relative viability (AZD5582 + Bortezomib; first compound 0.05 µM) was 0.929 and the relative viability (AZD5582 + Dasatinib; first compound 0.001581 µM) was 0.304. The relative viability (AZD5582 + Dasatinib; first compound 0.005 µM) was 0.663, the relative viability (AZD5582 + Dasatinib; first compound 0.01581 µM) was 0.341 and the relative viability (AZD5582 + Dasatinib; first compound 0.05 µM) was 0.303.
